Test system: SARS-CoV-2-specific IgM and IgG
Assay: SARS-CoV-2-specific IgM and IgG detection (CLIA)
Format: in vivo, human
Conditions: vs control group
From the text: SARS-CoV-2-specific IgM and IgG detection. The SARS-CoV-2-specific IgM and IgG were detected by paramagnetic particle chemiluminescent immunoassay (CLIA) using iFlash-SARS-CoV-2 IgM/IgG assay kit (SHENZHEN YHLO BIOTECH CO., LTD.) and iFlash Immunoassay Analyzer (SHENZHEN YHLO BIOTECH CO., LTD.)
Procedures. The first day of randomization was designated as D0. The second and the fourth day after randomization were designated D1 and D3, respectively. Dx referred to the day when either disease progressed according to the Chinese management guideline for COVID-19 (version 5.0) or defined as a one-category increase on the seven-category scale. Dend was the day before discharge. The enrolled patients were randomly separated into two groups: the treatment group (group B) received oral intake of ruxolitinib (Jakafi®, Novartis Pharma Stein AG, Switzerland) 5 mg twice a day plus standard-of-care (SoC); the control group (group A) is treated with placebo twice a day with SoC. […] Safety was monitored daily by two independent senior physicians from the trial center. […] The CT features of improvement were evaluated by two independent senior radiologists blindly, which should at least meet one of the following criteria: decreased presence of ground-glass opacities (GGO), decreased lung opacification, reduced density of consolidation or decreased pleural effusion with existence of fibrous stripes^29. […]

For `N#CC[C@H](C1CCCC1)n1cc(-c2ncnc3[nH]ccc23)cn1` [Ruxolitinib, (3R)-3-cyclopentyl-3-[4-(7H-pyrrolo[2,3-d]pyrimidin-4-yl)pyrazol-1-yl]propanenitrile], the “Peak IgG against SARS-CoV-2” value was “no significant difference” and the “Peak level of anti-IgM of SARS-CoV-2” value (P=0.039) was “profoundly higher”.

Reference: US11324750B2, “Compositions and methods for the treatment of severe acute respiratory syndrome coronavirus 2 (SARS-CoV-2) infection” (Children's Hospital Medical Center, priority 2020, dated 2022)
